Laboratory results: patent US5129937A, “Pyridyloxypyrimidine derivatives, preparation process thereof, and herbicidal compositions containing the same as active ingredients” (Mitsui Toatsu Chemicals Incorporated, priority 1989, dated 1992)
Blank lines part the entries; values can stand above or below the compound they belong to.

Columns and labels:
[1] = test system: ALS (acetolactate synthase); assay: ALS (Acetolactate Synthase) Inhibition Test, barnyardgrass enzyme; assay type: biochemical; settings: enzymoreaction inhibition rate at 10 ppm (5 μg/0.5 ml)
Experimental: (§1) To determine the selectivity in enzyme level between crops and weeds, an ALS inhibition test was conducted using pea as a representative of broadleaf crops and barnyardgrass as a representative of gramineous weeds.
(§2) After seeds of pea and barnyardgrass were allowed to germinate at 25° C. for 8-14 days in a dark place, partially-purified suspensions (Suspensions A) of acetolactate syntase were separately obtained from seedlings in accordance with the method described in the literature, Plant Physiology, 75, 827-831. In a test tube, […], followed by the addition of 0.15 ml of a 20 mM K2 HPO4 solution and 0.25 ml of a reaction substrate medium which consisted of 40 mM of K2 HPO4, 40 mM of sodium pyruvate, 1 mM of TPP, 1 mM of MgCl2 and 20 μM of FAD so that 0.4 ml of a reaction solution (Solution B) was prepared. Added to 0.4 ml of Solution B was 0.1 ml of Suspension A. After the resultant mixture was shaken for 1 hour in a thermostat water bath controlled at 30° C., 50 μl of 6N sulfuric acid were added to terminate the reaction.
(§3) Next, the reaction-terminated liquid mixture was transferred into a thermostat water bath controlled at 60° C. and was heated for 15 minutes. Thereafter, 0.5 ml of a 0.5% creatine solution and 0.5 ml of a 5% alkaline α-naphthol solution were added, and the resultant mixture was maintained at 60° C. for 15 minutes. As a result, the test solution developed a pink-red color. After the above operation, the absorbance of the test solution at 525 nm was measured by a spectrophotometer (Absorbance 1 of Test Compound).
(§4) On the other hand, the absorbance (Absorbance 2 of Blank) of a solution obtained by subjecting a portion of Solution B, said portion being free of the test compound, to the above operation and the absorbance (Absorbance 3 of sulfuric acid terminated) of another solution obtained by subjecting another portion of Solution B, said portion containing 50 μl of 6N sulfuric acid as a test compound, were measured at the same time. […] [formula]

[2] = test system: Cotton (Gossypium indicum); assay: Upland Soil Application Test, crop injury; assay type: in vivo; settings: 30 g ai/a; soil application before emergence, wettable powder; observed 30 days later
Experimental: (§5) Resin-made 1/2500-are pots were filled with the soil of an upland field. After they were fertilized, soybean, corn and cotton were seeded and 2-3 cm soil covering was applied. Seeds of redroot pigweed, morningglory (Ipomoea purpurea), common lambsquarters, barnyardgrass, green foxtail, large crabgrass, foxtail meadow and johnsongrass had been uniformly mixed with the soil. They were allowed to germinate in a green house. One day later (before emergence of weeds), a wettable powder prepared from a predetermined amount of each test compound in a similar manner to the method described in Formulation Example 1 was diluted with water and then sprayed evenly at an application rate equal to 10 l per are onto the surface of the soil by means of a pressure-operated ULV (ultra low volume) sprayer. Influence to the crops and weeds were observed 30 days later. The results are shown in Table 3, in which the degree of damages of each test plant and the degree of injury to each crop were determined by comparing the air-dried weights of the test plant and crop with those of the corresponding plant and crop in untreated pots and are shown in accordance with the following standard: […]

[3] = test system: Soybean (Glycine max); assay: Upland Soil Application Test, crop injury; assay type: in vivo; settings: 30 g ai/a; soil application before emergence, wettable powder; observed 30 days later
Experimental: as §5

[4] = test system: Corn (Zea maize); assay: Upland Soil Application Test, crop injury; assay type: in vivo; settings: 30 g ai/a; soil application before emergence, wettable powder; observed 30 days later
Experimental: as §5

[5] = test system: ALS (acetolactate synthase); assay: ALS (Acetolactate Synthase) Inhibition Test, pea enzyme; assay type: biochemical; settings: enzymoreaction inhibition rate at 10 ppm (5 μg/0.5 ml)
Experimental: as §1, §2, §3, §4

[6] = test system: Rice (Oryza sativa); assay: Submerged Soil Treatment Test (Pre-Emergence Treatment), crop injury; assay type: in vivo; settings: 30 g ai/a, granule, transplanted rice, observed 30 days later
Experimental: (§6) 1/5000-are Wagner pots were filled with soil. Seeds or tubers of barnyardgrass, bulrush and Sagittaria pygmaea were seeded or planted under submerged condition. Two pairs of rice seedlings (2-3 leaf stage), which had been reared in advance, were transplanted to each pot and were allowed to germinate in a green house. Each pair consisted of two rice seedlings. On day later (before emergence of weeds), each pot was treated with a granule which had been prepared by processing a predetermined amount of the test composition in accordance with a similar method to the method described in Formulation Example 9. The state of emergence of weeds and the state of injury of rice were observed 30 days later. In the table, the degrees of damages of the test plants and the degrees of injury of rice are shown in a similar manner to Example 2.

[7] = test system: Barnyardgrass (Echinochloa crus-galli); assay: Submerged Soil Treatment Test (Pre-Emergence Treatment); assay type: in vivo; settings: 30 g ai/a, granule, observed 30 days later
Experimental: as §6

[8] = test system: Arrowhead sp. (Sagittaria pygmaea); assay: as above; assay type: in vivo; settings: 30 g ai/a, granule, observed 30 days later
Experimental: as §6

[9] = test system: Bulrush (Scirpus juncoides); assay: as above; assay type: in vivo; settings: 30 g ai/a, granule, observed 30 days later
Experimental: as §6

[10] = test system: Rice (Oryza sativa); assay: Submerged Soil Treatment Test (Growth Stage Treatment), crop injury; assay type: in vivo; settings: 30 g ai/a, growth stage treatment (barnyardgrass two-leaf stage), granule, transplanted rice, observed 30 days later
Experimental: as §6, with “allowed to grow in a” for “allowed to germinate in a”, “rice seedlings. When the barnyardgrass grew to the two-leaf stage, each pot” for “rice seedlings. On day later (before emergence of weeds), each pot”, “injury of the rice are” for “injury of rice are”

[11] = test system: Redroot Pigweed; assay: Upland Soil Application Test; assay type: in vivo; settings: 30 g ai/a; soil application before emergence, wettable powder; observed 30 days later
Experimental: as §5

[12] = test system: Barnyardgrass (Echinochloa crus-galli); assay: Upland Soil Application Test; assay type: in vivo; settings: 30 g ai/a; soil application before emergence, wettable powder; observed 30 days later
Experimental: as §5

[13] = test system: Johnsongrass; assay: Upland Soil Application Test; assay type: in vivo; settings: 30 g ai/a; soil application before emergence, wettable powder; observed 30 days later
Experimental: as §5

[14] = test system: Crabgrass (Digitaria adsendens); assay: Upland Soil Application Test; assay type: in vivo; settings: 30 g ai/a; soil application before emergence, wettable powder; observed 30 days later
Experimental: as §5

[15] = test system: Common lambsquarters; assay: Upland Soil Application Test; assay type: in vivo; settings: 30 g ai/a; soil application before emergence, wettable powder; observed 30 days later
Experimental: as §5

[16] = test system: Foxtail meadow; assay: Upland Soil Application Test; assay type: in vivo; settings: 30 g ai/a; soil application before emergence, wettable powder; observed 30 days later
Experimental: as §5

[17] = test system: Foxtail (Setaria viridis); assay: Upland Soil Application Test; assay type: in vivo; settings: 30 g ai/a; soil application before emergence, wettable powder; observed 30 days later
Experimental: as §5

Inhibition rate (%) Barnyardgrass [1]: 100% | Inhibition rate (%) Pea [5]: 0%
Structure (SMILES): COc1cc(OC)nc(Oc2cccnc2C(OC)OC(C)C)n1 (stereo not shown) [Compound No. 5, 3-(4.6-dimethoxy-2-pyrimidinyloxy)-2-pyridinecarboxaldehyde isopropylmethylacetal]
Crop injury Cotton (Gossypium indicum) [2]: 0 (91-100 (No damages)) | Crop injury Soybean (Glycine max) [3]: 0 (91-100 (No damages)) | Crop injury Corn (Zea maize) [4]: 0 (91-100 (No damages)) | Crop injury Rice (Oryza sativa) [6]: 0 (91-100 (No damages)) | Herbicidal effects Barnyardgrass (Echinochloa crus-galli) [7]: 5 (0-5 (Death)) | Herbicidal effects Arrowhead sp. (Sagittaria pygmaea) [8]: 5 (0-5 (Death)) | Herbicidal effects Bulrush (Scirpus juncoides) [9]: 5 (0-5 (Death)) | Crop injury Rice (Oryza sativa) [10]: 0 (91-100 (No damages)) | Herbicidal effects Redroot Pigweed [11]: 5 (0-5 (Death)) | Herbicidal effects Barnyardgrass (Echinochloa crus-galli) [12]: 4 (6-10 (Severe damages)) | Herbicidal effects Johnsongrass [13]: 5 (0-5 (Death)) | Herbicidal effects Crabgrass (Digitaria adsendens) [14]: 4 (6-10 (Severe damages)) | Herbicidal effects Common lambquarters [15]: 5 (0-5 (Death)) | Herbicidal effects Foxtail meadow [16]: 5 (0-5 (Death)) | Herbicidal effects Foxtail (Setaria viridis) [17]: 5 (0-5 (Death))

Inhibition rate (%) Barnyardgrass [1]: 96% | Inhibition rate (%) Pea [5]: 0%
Structure (SMILES): COc1cc(OC)nc(Oc2cccnc2C2OCCO2)n1 [Compound No. 6]
Crop injury Cotton (Gossypium indicum) [2]: 0 (91-100 (No damages)) | Crop injury Soybean (Glycine max) [3]: 0 (91-100 (No damages)) | Crop injury Corn (Zea maize) [4]: 0 (91-100 (No damages)) | Crop injury Rice (Oryza sativa) [6]: 0 (91-100 (No damages)) | Herbicidal effects Barnyardgrass (Echinochloa crus-galli) [7]: 5 (0-5 (Death)) | Herbicidal effects Arrowhead sp. (Sagittaria pygmaea) [8]: 5 (0-5 (Death)) | Herbicidal effects Bulrush (Scirpus juncoides) [9]: 5 (0-5 (Death)) | Crop injury Rice (Oryza sativa) [10]: 0 (91-100 (No damages)) | Herbicidal effects Redroot Pigweed [11]: 4 (6-10 (Severe damages)) | Herbicidal effects Barnyardgrass (Echinochloa crus-galli) [12]: 3 (11-40 (Medium damages)) | Herbicidal effects Johnsongrass [13]: 5 (0-5 (Death)) | Herbicidal effects Crabgrass (Digitaria adsendens) [14]: 3 (11-40 (Medium damages)) | Herbicidal effects Common lambquarters [15]: 4 (6-10 (Severe damages)) | Herbicidal effects Foxtail meadow [16]: 4 (6-10 (Severe damages)) | Herbicidal effects Foxtail (Setaria viridis) [17]: 4 (6-10 (Severe damages))

Inhibition rate (%) Barnyardgrass [1]: 5% | Inhibition rate (%) Pea [5]: 52%
Structure (SMILES): CCOC(=O)c1ncccc1Oc1nc(OC)cc(OC)n1 [A, reference compound]
Crop injury Cotton (Gossypium indicum) [2]: 5 (0-5 (Death)) | Crop injury Soybean (Glycine max) [3]: 5 (0-5 (Death)) | Crop injury Corn (Zea maize) [4]: 5 (0-5 (Death)) | Crop injury Rice (Oryza sativa) [6]: 5 (0-5 (Death)) | Herbicidal effects Barnyardgrass (Echinochloa crus-galli) [7]: 5 (0-5 (Death)) | Herbicidal effects Arrowhead sp. (Sagittaria pygmaea) [8]: 4 (6-10 (Severe damages)) | Herbicidal effects Bulrush (Scirpus juncoides) [9]: 5 (0-5 (Death)) | Crop injury Rice (Oryza sativa) [10]: 5 (0-5 (Death)) | Herbicidal effects Redroot Pigweed [11]: 4 (6-10 (Severe damages)) | Herbicidal effects Barnyardgrass (Echinochloa crus-galli) [12]: 3 (11-40 (Medium damages)) | Herbicidal effects Johnsongrass [13]: 5 (0-5 (Death)) | Herbicidal effects Crabgrass (Digitaria adsendens) [14]: 4 (6-10 (Severe damages)) | Herbicidal effects Common lambquarters [15]: 4 (6-10 (Severe damages)) | Herbicidal effects Foxtail meadow [16]: 5 (0-5 (Death)) | Herbicidal effects Foxtail (Setaria viridis) [17]: 5 (0-5 (Death))

Inhibition rate (%) Barnyardgrass [1]: 100% | Inhibition rate (%) Pea [5]: 3%
Structure (SMILES): COc1cc(OC)nc(Oc2cccnc2C=O)n1 [Compound No. 1, 4,6-dimethoxy-2-(2-formyl-3-pyridyloxy)pyrimidine]
Crop injury Cotton (Gossypium indicum) [2]: 0 (91-100 (No damages)) | Crop injury Soybean (Glycine max) [3]: 0 (91-100 (No damages)) | Crop injury Corn (Zea maize) [4]: 0 (91-100 (No damages)) | Crop injury Rice (Oryza sativa) [6]: 1 (71-90 (Slight damages)) | Herbicidal effects Barnyardgrass (Echinochloa crus-galli) [7]: 4 (6-10 (Severe damages)) | Herbicidal effects Arrowhead sp. (Sagittaria pygmaea) [8]: 4 (6-10 (Severe damages)) | Herbicidal effects Bulrush (Scirpus juncoides) [9]: 4 (6-10 (Severe damages)) | Crop injury Rice (Oryza sativa) [10]: 1 (71-90 (Slight damages)) | Herbicidal effects Redroot Pigweed [11]: 3 (11-40 (Medium damages)) | Herbicidal effects Barnyardgrass (Echinochloa crus-galli) [12]: 3 (11-40 (Medium damages)) | Herbicidal effects Johnsongrass [13]: 4 (6-10 (Severe damages)) | Herbicidal effects Crabgrass (Digitaria adsendens) [14]: 2 (41-70 (Small damages)) | Herbicidal effects Common lambquarters [15]: 2 (41-70 (Small damages)) | Herbicidal effects Foxtail meadow [16]: 3 (11-40 (Medium damages)) | Herbicidal effects Foxtail (Setaria viridis) [17]: 3 (11-40 (Medium damages))

Inhibition rate (%) Barnyardgrass [1]: 87% | Inhibition rate (%) Pea [5]: 0%
Structure (SMILES): COc1cc(OC)nc(Oc2cccnc2C2OCC(C)O2)n1 (stereo not shown) [Compound No. 7]
Crop injury Cotton (Gossypium indicum) [2]: 0 (91-100 (No damages)) | Crop injury Soybean (Glycine max) [3]: 0 (91-100 (No damages)) | Crop injury Corn (Zea maize) [4]: 0 (91-100 (No damages)) | Crop injury Rice (Oryza sativa) [6]: 0 (91-100 (No damages)) | Herbicidal effects Barnyardgrass (Echinochloa crus-galli) [7]: 5 (0-5 (Death)) | Herbicidal effects Arrowhead sp. (Sagittaria pygmaea) [8]: 4 (6-10 (Severe damages)) | Herbicidal effects Bulrush (Scirpus juncoides) [9]: 5 (0-5 (Death)) | Crop injury Rice (Oryza sativa) [10]: 0 (91-100 (No damages)) | Herbicidal effects Redroot Pigweed [11]: 4 (6-10 (Severe damages)) | Herbicidal effects Barnyardgrass (Echinochloa crus-galli) [12]: 5 (0-5 (Death)) | Herbicidal effects Johnsongrass [13]: 5 (0-5 (Death)) | Herbicidal effects Crabgrass (Digitaria adsendens) [14]: 4 (6-10 (Severe damages)) | Herbicidal effects Common lambquarters [15]: 4 (6-10 (Severe damages)) | Herbicidal effects Foxtail meadow [16]: 4 (6-10 (Severe damages)) | Herbicidal effects Foxtail (Setaria viridis) [17]: 5 (0-5 (Death))
